Measured values as given in patent US20110294734A1, “PHARMACEUTICAL COMPOSITIONS COMPRISING TGF-BETA 1 INHIBITOR PEPTIDES” (DIGNA BIOTECH, S.L., priority 2009, published 2011).
Read-outs that look alike come from different tables or passages of the source. No end group written: not given here.

Test: Solubility study of P144
Type: physicochemical

- Solubility (Dicloromethane (DCM)): insoluble
- Solubility (Dimethyl sulfoxide (DMSO)): very soluble
- Solubility (Dimethylformamide (DMF)): insoluble
- Solubility (Ethanol): insoluble
- Solubility (Gantrez ® S97 2-5%): insoluble
- Solubility (Glycerol): insoluble
- Solubility (Hexane): insoluble
- Solubility (Human albumin 20%, read-out: Solubility): 250 µg/mL
- Solubility (Hydroxy-propyl-β-cyclodextrin 5%, read-out: Solubility): 250 µg/mL
- Solubility (PEG 400): insoluble
- Solubility (PLASDONE 5%): insoluble
- Solubility (Pluronic F68 (1-10%)): insoluble
- Solubility (Proplylene glycol): insoluble
- Solubility (Sodium deoxycholate 5%): insoluble
- Solubility (Tetrahydrofurane (THF)): insoluble
- Solubility (Urea 10%, read-out: Solubility): 250 µg/mL
- Solubility (distilled water): insoluble
Sequence: TSLDASIIWAMMQN [Formula P144, TSLDASIIWAMMQN]
